Legend:
[1] = system: Candida albicans 103; assay: Checkerboard microdilution assay with fluconazole; format: cell-based
Description: Ta b l e S3. Interaction of fluconazole ( FLC) and BE probes against isolates of Candida albicans
Compounds Molecular structure Individual action Interaction MIC(μg/ mL ) FICI Mode of
MIC (μg /mL) FLC Compounds interaction

[2] = system: C. albicans eno1/eno1 mutant strain; assay: Galleria mellonella infection model, eno1/eno1 strain; format: in vivo, Candida albicans; conditions: G. mellonella, 10 mg/kg
Procedure: To assess whether Eno1 is a therapeutic target of BE, we constructed a homozygous deletion strain for the ENO1 gene (eno1/eno1). We then investigated the difference in the antifungal efficacy of BE on the infections caused by the parent strain SN152 and the eno1/eno1 strain in the Galleria mellonella infection model. We divided the G. mellonella into 5 groups, with 10 larvae in each group. All 10 larvae died after a 24-h infection with the SN152 strain, while only 3 larvae died after 24 h when infected with the eno1/eno1 strain; the remaining larvae died within 7 days. Compared with the group infected with the parent strain, the survival time of the group infected with the eno1/eno1 strain was longer (P < 0.01) (Fig. 4A). […] The survival rate of larvae in the BE (10 mg/kg of body weight)-treated, SN152 strain-infected group was extended by 30%, compared with that in the group infected with the SN152 strain but without antifungal drug treatment (P < 0.001) (Fig. 4B). […] All 10 larvae in the BE-treated group died within 6 days, and all 10 larvae without BE treatment were killed within 7 days (Fig. 4C). However, FLC (10 mg/kg) can extend the survival rate of larvae infected by the eno1/eno1 strain by 60% (P < 0.01) (Fig. 4D) compared with the group infected with the eno1/eno1 strain without antifungal drug treatment.
FIG 4 Eno1 acts as a therapeutic target of BE. […] Each curve represents a group of 10 larvae (n =10) monitored daily for survival for up to 10 days after infection. […]
Virulence testing of C. albicans was done in Galleria mellonella as described previously ([56]). […] After growth in YPD media overnight at 30°C and 200 rpm, C. albicans SN152 cells or eno1/eno1 mutant cells were washed with PBS 3 times and diluted to the desired concentration (1 × 10^7 cells/mL) determined by counting with a hemacytometer. […] The death of G. mellonella was assessed daily and analyzed statistically by the Kaplan-Meier method (log-rank test).

[3] = target: T1, CaEno1 (Candida albicans, UniProt P30575); conditions: read-out: IC50 inhibiting enolase activity; CaEno1 30 nM, 2-PG 1 mM
T1 sequence (P30575 1-440): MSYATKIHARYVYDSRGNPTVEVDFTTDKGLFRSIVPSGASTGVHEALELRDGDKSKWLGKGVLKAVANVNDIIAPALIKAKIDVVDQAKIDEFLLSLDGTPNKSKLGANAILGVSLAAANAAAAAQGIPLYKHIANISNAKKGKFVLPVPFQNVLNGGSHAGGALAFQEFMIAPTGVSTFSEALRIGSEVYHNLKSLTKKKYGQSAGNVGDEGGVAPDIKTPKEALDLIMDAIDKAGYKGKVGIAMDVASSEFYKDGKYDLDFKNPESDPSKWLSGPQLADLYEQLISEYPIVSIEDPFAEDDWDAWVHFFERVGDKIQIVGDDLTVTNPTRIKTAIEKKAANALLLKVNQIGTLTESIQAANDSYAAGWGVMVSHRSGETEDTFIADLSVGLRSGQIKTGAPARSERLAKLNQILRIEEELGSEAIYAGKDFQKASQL
Procedure: Data are shown as the means ± standard deviations. […] Data are shown as the means ± standard deviations.
Enolase activity was determined by direct spectrophotometric assay via measuring the increase of absorbance at 240 nm of phosphoenolpyruvate (PEP) as described previously with some modifications ([54]). Briefly, the reaction buffer (pH 7.0) containing 10 mM imidazole, 200 mM KCl, and 0.5 mM MgAc in a final reaction volume of 100 μL was mixed with Eno1 (a final concentration of 30 nM), followed by the mixture of 2-phosphoglycerate (2-PG) (Yuanye Biotech Shanghai) with a final concentration of 1 mM. The enolase activity of Eno1 was evaluated by measuring the increase of absorbance (OD240) at room temperature for 10 min. […] The well-known enolase inhibitor sodium fluoride (NaF; Sangon Biotech) was initiated from 5 mM and used as a control ([29]). Inhibition curves were fitted by nonlinear regression (four parameters) using the GraphPad Prism software.

[4] = target: the molecule itself; assay: crystal structure; X-ray crystals of CaEno1 alone and of CaEno1 with 2-PG, sitting drop at 13°C, space group C2; four Eno1 chains (two dimers) in the asymmetric unit

C#CCOc1cc(C2(C(F)(F)F)N=N2)ccc1COc1cc2oc(-c3ccccc3)cc(=O)c2c(O)c1N [BE-1]
Interaction MIC FLC ([1]; MIC of FLC in combination with the compound): > 64 µg/mL | Interaction MIC Compounds ([1]; MIC of the compound in combination with FLC): 1 µg/mL | FICI ([1]; combination with FLC): 1.01 | Mode of interaction ([1]; combination with FLC, FLC-resistant C. albicans): Indifference | Individual action MIC ([1]; compound alone): > 64 µg/mL

OC(Cn1cncn1)(Cn1cncn1)c1ccc(F)cc1F [FLC, fluconazole]
survival rate of larvae extended versus infected group without drug treatment [2]: 60%

[F-].[Na+] [NaF, sodium fluoride]
IC50 [3]: 504 ± 7.1 µM

B1: C. albicans Eno1 (enzyme, UniProt P30575 1-440, looked up)
chain: MSYATKIHARYVYDSRGNPTVEVDFTTDKGLFRSIVPSGASTGVHEALELRDGDKSKWLGKGVLKAVANVNDIIAPALIKAKIDVVDQAKIDEFLLSLDGTPNKSKLGANAILGVSLAAANAAAAAQGIPLYKHIANISNAKKGKFVLPVPFQNVLNGGSHAGGALAFQEFMIAPTGVSTFSEALRIGSEVYHNLKSLTKKKYGQSAGNVGDEGGVAPDIKTPKEALDLIMDAIDKAGYKGKVGIAMDVASSEFYKDGKYDLDFKNPESDPSKWLSGPQLADLYEQLISEYPIVSIEDPFAEDDWDAWVHFFERVGDKIQIVGDDLTVTNPTRIKTAIEKKAANALLLKVNQIGTLTESIQAANDSYAAGWGVMVSHRSGETEDTFIADLSVGLRSGQIKTGAPARSERLAKLNQILRIEEELGSEAIYAGKDFQKASQL
notes: also called CaEno1; enolase; source: E. coli BL21(DE3), purified (Ni-NTA, Superdex 200 SEC)
stoichiometry N [4]: 2
